The values below come from patent publication US12156880B2, “Heterocyclic RIP1 kinase inhibitors” (Rigel Pharmaceuticals, Inc., priority 2021, dated 2024).

SMILES strings stand for the structures.

Experiment [1] concerns the target T1, RIPK1 (Homo sapiens, UniProt Q13546).
T1 sequence (Q13546 1-671): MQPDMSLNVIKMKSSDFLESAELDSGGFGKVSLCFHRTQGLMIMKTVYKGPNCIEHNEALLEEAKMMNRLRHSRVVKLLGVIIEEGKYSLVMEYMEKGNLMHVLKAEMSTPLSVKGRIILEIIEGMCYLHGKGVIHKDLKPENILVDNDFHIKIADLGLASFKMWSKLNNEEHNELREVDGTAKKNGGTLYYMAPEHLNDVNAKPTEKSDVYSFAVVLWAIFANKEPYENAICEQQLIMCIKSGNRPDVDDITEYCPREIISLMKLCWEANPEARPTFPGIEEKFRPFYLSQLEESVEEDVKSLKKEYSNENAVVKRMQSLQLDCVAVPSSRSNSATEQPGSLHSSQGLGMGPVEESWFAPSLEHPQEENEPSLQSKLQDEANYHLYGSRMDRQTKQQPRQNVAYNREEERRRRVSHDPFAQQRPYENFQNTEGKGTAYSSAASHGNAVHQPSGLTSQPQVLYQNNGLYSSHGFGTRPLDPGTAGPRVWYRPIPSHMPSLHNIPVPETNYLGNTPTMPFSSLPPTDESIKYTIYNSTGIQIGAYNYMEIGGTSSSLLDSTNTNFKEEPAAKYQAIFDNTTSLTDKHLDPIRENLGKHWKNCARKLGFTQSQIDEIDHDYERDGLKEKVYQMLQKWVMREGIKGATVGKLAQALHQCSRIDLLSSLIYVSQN
The experiment is described as follows: RIPK1 ADP-Glo biochemical kinase assay. Conditions: read-out: RIPK1 ADP-Glo Kinase (IC50). Put shortly: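 RIPK1 at 31 ng/well in Tris pH 7.4 buffer with MgCl2, BSA, DTT and MnCl2, reacted with compounds (duplicate) for 30 min at 30 °C. ADP formed detected by ADP-Glo: 40 min stop/depletion, then 30 min detection reagent at room temperature; luminescence read.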
For orientation: In ADP-Glo the light output rises with the ADP produced.

Experiment [2] deals with U937 cells. Nature of the experiment: U937 cell necroptosis assay (TNFa + zVAD, CellTiter-Glo recovery). It is filed as cell-based. Conditions: Homo sapiens, U-937, 18 h, TNFa 2 ng/mL + zVAD-fmk, read-out: U937 Zvad TNF CTG Recovery, U937, TNFa + zVAD (IC50). The essentials:
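Human U937 (50K/well, 60 uM zVAD-fmk medium, plated same day) or murine L929 (10K/well, plated 18 h, then 40 uM zVAD-fmk medium) were grown in RPMI with 10% FBS. Both were pretreated with compound for 1 h at 37 °C before TNFa at 2 ng/mL final. Viability was read by CellTiter-Glo luminescence after 18 h.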

Experiment [3] deals with L929 cells. The experiment is described as follows: L929 cell necroptosis assay (TNFa + zVAD, CellTiter-Glo recovery). Conditions: Mus musculus, L929, 18 h, TNFa 2 ng/mL + zVAD-fmk, read-out: L929-CTG-recovery, L929, TNFa + zVAD (IC50). Format: cell-based, murine. Here is the method: In this example, U937 and L929 cells were exposed to compounds of the present disclosure and a cell necroptosis assay was conducted to evaluate the compounds' activity against human RIP1 and murine RIP1.
U937 and L929 cells were obtained from the American Type Culture Collection (Manassas, VA, USA). Both cells were maintained in logarithmic growth phase in complete RPMI 1640 media (Sigma, ST Louis, MO, USA) supplemented with 10% fetal bovine serum (Sigma, ST Louis, MO, USA) at 37° C. with 5% CO2. For necroptosis assay, L929 cells were plated for 18 h in 100 μL/well medium at 10K cells/well in Costar 96-well black clear-bottom plates (Fisher Scientific, Hampton, NH, USA); U937 cells were plated on the day of the assay in 50 μL/well medium containing 60 uM zVAD-fmk (Lonza, Basel, Switzerland) at 50K cells/well. Medium from L929 cells were removed from the 96-well plates and replaced with 50 μL/well new medium containing 40 uM zVAD-fmk. Each compound of the present disclosure evaluated in this example was serially diluted in DMSO from 2.5 mM in 4-fold dilutions, and then diluted 1:125 in complete medium. 50 μL/well 2× of the compound was then added to the cells in the plates. The cells were pre-incubated with the compound for 1 hour at 37° C. with 5% CO2 and before addition of 10 μL/well 11×TNFa (Peprotech, Rocky Hill, NJ, USA) to give a final concentration of 2 ng/mL for TNFa. The relative amount of necroptosis cells was determined by luminescent using a Wallac Victor2 Luminometer (PerkinElmer, Waltham, MA, USA) and a CellTiter-Glo® Luminescent Cell Viability Reagent Assay (Promega, Madison, WI, USA) added per manufacturer instructions after 18 hours of TNFa stimulation at 37° C. with 5% CO2. This example establishes that embodiments of the compounds described herein have unexpectedly potent activity against human RIP1 and murine RIP1, which allows their assessment in in vivo mouse models of disease.
Background: ATP-based viability assays read luminescence as a measure of living cells.

A word on the IC50: it is the concentration that gives 50% inhibition. In the case of `CN1C(=O)[C@@H](NC(=O)c2cc(Oc3ccc(F)nc3)ccn2)COc2ccc(C#CC(C)(C)O)cc21` [I-6, (S)-4-((6-fluoropyridin-3-yl)oxy)-N-(7-(3-hydroxy-3-methylbut-1-yn-1-yl)-5-methyl-4-oxo-2,3,4,5-tetrahydrobenzo[b][1,4]oxazepin-3-yl)picolinamide], the IC50 in experiment [1] stood at 40.9 nM; in experiment [2], 49.6 nM; in experiment [3], 3420 nM.

Consider `CN1C(=O)[C@@H](NC(=O)c2cc(Oc3cccnc3)ccn2)COc2ccc(C#CC3CCOCC3)cc21` [I-63, (S)—N-(5-methyl-4-oxo-7-((tetrahydro-2H-pyran-4-yl)ethynyl)-2,3,4,5-tetrahydrobenzo[b][1,4]oxazepin-3-yl)-4-(pyridin-3-yloxy)picolinamide], for which the half-maximal inhibitory concentration (IC50) in experiment [1] is 19.5 nM; in experiment [2] it was 0.7 nM; in experiment [3], 60 nM.

Consider `Cc1ncccc1Oc1ccnc(C(=O)N[C@H]2COc3ccc(C#CC(C)(C)O)cc3N(C)C2=O)c1` [I-74, (S)—N-(7-(3-hydroxy-3-methylbut-1-yn-1-yl)-5-methyl-4-oxo-2,3,4,5-tetrahydrobenzo[b][1,4]oxazepin-3-yl)-4-((2-methylpyridin-3-yl)oxy)picolinamide], for which the values for the IC50 in experiment [1], in experiment [2] and in experiment [3] were 35.9 nM, 126 nM and 3520 nM, respectively.

As for `CN1C(=O)[C@@H](NC(=O)n2cc(Cc3cccnc3F)cn2)COc2ccc(C#CC(C)(C)CO)cc21` [I-46, (S)-4-((2-Fluoropyridin-3-yl)methyl)-N-(7-(4-hydroxy-3,3-dimethylbut-1-yn-1-yl)-5-methyl-4-oxo-2,3,4,5-tetrahydrobenzo[b][1,4]oxazepin-3-yl)-1H-pyrazole-1-carboxamide], the IC50 came to 37.5 nM in experiment [1], 9.7 nM in experiment [2] and 2370 nM in experiment [3].

On to `Cc1ncccc1Oc1ccnc(C(=O)N[C@H]2COc3ccc(C#CC4(O)CCC4)cc3N(C)C2=O)c1` [I-82, (S)—N-(7-((1-hydroxycyclobutyl)ethynyl)-5-methyl-4-oxo-2,3,4,5-tetrahydrobenzo[b][1,4]oxazepin-3-yl)-4-((2-methylpyridin-3-yl)oxy)picolinamide], for which the IC50 worked out at 29.4 nM in experiment [1], 30.2 nM in experiment [2] and 4480 nM in experiment [3].

On to `CN1C(=O)[C@@H](NC(=O)c2cc(Oc3cnn(C)c3)ccn2)COc2ccc(C#CC3(O)CCC3)cc21` [I-133, (S)—N-(7-((1-hydroxycyclobutyl)ethynyl)-5-methyl-4-oxo-2,3,4,5-tetrahydrobenzo[b][1,4]oxazepin-3-yl)-4-((1-methyl-1H-pyrazol-4-yl)oxy)picolinamide], for which the IC50 in experiment [1] was 14 nM; in experiment [2], 5.2 nM; in experiment [3] it was 58.2 nM.

For `Cc1cccc(Oc2ccnc(C(=O)N[C@H]3COc4ccc(C#CC(C)(C)O)cc4N(C)C3=O)c2)n1` [I-130, (S)—N-(7-(3-hydroxy-3-methylbut-1-yn-1-yl)-5-methyl-4-oxo-2,3,4,5-tetrahydrobenzo[b][1,4]oxazepin-3-yl)-4-((6-methylpyridin-2-yl)oxy)picolinamide], the IC50 in experiment [1] is 33.4 nM; in experiment [2], 311 nM; in experiment [3], 5040 nM.

`CN1C(=O)[C@@H](NC(=O)n2cc(Cc3ccc(F)nc3F)cn2)COc2ccc(C#CC(C)(C)O)cc21` [I-50, (S)-4-((2,6-Difluoropyridin-3-yl)methyl)-N-(7-(3-hydroxy-3-methylbut-1-yn-1-yl)-5-methyl-4-oxo-2,3,4,5-tetrahydrobenzo[b][1,4]oxazepin-3-yl)-1H-pyrazole-1-carboxamide]: the IC50 in experiment [1] was 181 nM; in experiment [2], 62.3 nM; in experiment [3] it was 17600 nM.

Turning to `Cc1nc(Cc2ccnc(C(=O)N[C@H]3COc4ccc(C#CC5CCOCC5)cc4N(C)C3=O)c2)cs1` [I-90, (S)—N-(5-methyl-4-oxo-7-((tetrahydro-2H-pyran-4-yl)ethynyl)-2,3,4,5-tetrahydrobenzo[b][1,4]oxazepin-3-yl)-4-((2-methylthiazol-4-yl)methyl)picolinamide], the figures for the IC50 in experiment [1], in experiment [2] and in experiment [3] were 20 nM, 1.9 nM and 20.5 nM, respectively.

As for `CN1C(=O)[C@@H](NC(=O)n2cc(Cc3cccnc3)cn2)COc2ccc(C#CC(C)(C)O)cc21` [I-14, (S)—N-(7-(3-Hydroxy-3-methylbut-1-yn-1-yl)-5-methyl-4-oxo-2,3,4,5-tetrahydrobenzo[b][1,4]oxazepin-3-yl)-4-(pyridin-3-ylmethyl)-1H-pyrazole-1-carboxamide], the figures for the IC50 in experiment [1], in experiment [2] and in experiment [3] were 17.6 nM, 14.3 nM and 1170 nM, respectively.

Take `CN1C(=O)[C@@H](NC(=O)n2cc(Cc3cccnc3F)cn2)COc2ccc(Br)cc21` [I-42, (S)—N-(7-Bromo-5-methyl-4-oxo-2,3,4,5-tetrahydrobenzo[b][1,4]oxazepin-3-yl)-4-((2-fluoropyridin-3-yl)methyl)-1H-pyrazole-1-carboxamide]: the IC50 in experiment [1] worked out at 18.2 nM; in experiment [2], 58.6 nM; in experiment [3] it was 28400 nM.

In the case of `Cc1cccc(Cc2cnn(C(=O)N[C@H]3COc4ccc(C#CC(C)(C)O)cc4N(C)C3=O)c2)n1` [I-2, (S)—N-(7-(3-Hydroxy-3-methylbut-1-yn-1-yl)-5-methyl-4-oxo-2,3,4,5-tetrahydrobenzo[b][1,4]oxazepin-3-yl)-4-((6-methylpyridin-2-yl)methyl)-1H-pyrazole-1-carboxamide], the IC50 in experiment [1] was 42.2 nM; in experiment [2] it was 49.7 nM; in experiment [3], 1800 nM.

Take `CN1C(=O)[C@@H](NC(=O)n2cc(Cc3cccc(F)n3)cn2)COc2ccc(C#CC(C)(C)O)cc21` [I-1, (S)-4-((6-Fluoropyridin-2-yl)methyl)-N-(7-(3-hydroxy-3-methylbut-1-yn-1-yl)-5-methyl-4-oxo-2,3,4,5-tetrahydrobenzo[b][1,4]oxazepin-3-yl)-1H-pyrazole-1-carboxamide]: the results for the IC50 in experiment [1], in experiment [2] and in experiment [3] were 20.6 nM, 11.4 nM and 2300 nM, respectively.

For `CN1C(=O)[C@@H](NC(=O)c2cc(Oc3cccnc3F)ccn2)COc2ccc(C#CC(C)(C)O)cc21` [I-54, (S)-4-((2-fluoropyridin-3-yl)oxy)-N-(7-(3-hydroxy-3-methylbut-1-yn-1-yl)-5-methyl-4-oxo-2,3,4,5-tetrahydrobenzo[b][1,4]oxazepin-3-yl)picolinamide], the figures for the IC50 in experiment [1], in experiment [2] and in experiment [3] were 16.8 nM, 7.1 nM and 573 nM, respectively.

For the molecule `CN1C(=O)[C@@H](NC(=O)c2cc(Oc3cncc(F)c3)ccn2)COc2ccc(C#CC3COC3)cc21` [I-67, (S)-4-((5-fluoropyridin-3-yl)oxy)-N-(5-methyl-7-(oxetan-3-ylethynyl)-4-oxo-2,3,4,5-tetrahydrobenzo[b][1,4]oxazepin-3-yl)picolinamide], the IC50 in experiment [1] came to 20.1 nM; in experiment [2], 1.3 nM; in experiment [3] it was 348 nM.
